From article PMC3950631, “L-Phenylalanine Transport in Saccharomyces cerevisiae: Participation of GAP1, BAP2, and AGP1” (Journal of Amino Acids, 2014)
Where two headings read alike, the source gives them in different places.

How the values were obtained:
Assay in all cases: inhibition of […] L-[…]-phenylalanine uptake into intact yeast cells
Format in all cases: cell-based
Gap1p = molecular target: T1, Gap1p (Saccharomyces cerevisiae, UniProt P19145)
T1 construct: gene GAP1; native chromosomal permease in intact yeast cells, full length, plasma membrane; assigned by gene disruption and growth medium
T1 sequence (P19145 1-602): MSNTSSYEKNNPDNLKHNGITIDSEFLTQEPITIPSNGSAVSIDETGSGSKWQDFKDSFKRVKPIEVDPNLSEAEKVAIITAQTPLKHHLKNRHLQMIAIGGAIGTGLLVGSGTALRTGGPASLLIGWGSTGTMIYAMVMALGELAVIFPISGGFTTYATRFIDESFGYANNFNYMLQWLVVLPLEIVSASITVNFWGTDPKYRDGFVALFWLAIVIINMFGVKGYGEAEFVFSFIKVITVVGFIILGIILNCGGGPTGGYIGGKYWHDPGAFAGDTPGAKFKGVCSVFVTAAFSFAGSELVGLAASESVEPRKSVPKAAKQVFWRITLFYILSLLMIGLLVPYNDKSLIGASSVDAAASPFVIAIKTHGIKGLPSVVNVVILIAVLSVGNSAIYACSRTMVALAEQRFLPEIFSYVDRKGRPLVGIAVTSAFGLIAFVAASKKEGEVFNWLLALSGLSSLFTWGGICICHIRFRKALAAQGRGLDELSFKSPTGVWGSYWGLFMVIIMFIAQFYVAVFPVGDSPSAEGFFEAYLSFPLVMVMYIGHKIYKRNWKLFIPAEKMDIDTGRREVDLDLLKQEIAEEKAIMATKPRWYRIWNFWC

Bap2p = molecular target: T2, Bap2p (Saccharomyces cerevisiae, UniProt P38084); settings: read-out: Percentage inhibition / Y294Δagp1
T2 construct: gene BAP2; native chromosomal permease in intact yeast cells, full length, plasma membrane; assigned by gene disruption
T2 sequence (P38084 1-609): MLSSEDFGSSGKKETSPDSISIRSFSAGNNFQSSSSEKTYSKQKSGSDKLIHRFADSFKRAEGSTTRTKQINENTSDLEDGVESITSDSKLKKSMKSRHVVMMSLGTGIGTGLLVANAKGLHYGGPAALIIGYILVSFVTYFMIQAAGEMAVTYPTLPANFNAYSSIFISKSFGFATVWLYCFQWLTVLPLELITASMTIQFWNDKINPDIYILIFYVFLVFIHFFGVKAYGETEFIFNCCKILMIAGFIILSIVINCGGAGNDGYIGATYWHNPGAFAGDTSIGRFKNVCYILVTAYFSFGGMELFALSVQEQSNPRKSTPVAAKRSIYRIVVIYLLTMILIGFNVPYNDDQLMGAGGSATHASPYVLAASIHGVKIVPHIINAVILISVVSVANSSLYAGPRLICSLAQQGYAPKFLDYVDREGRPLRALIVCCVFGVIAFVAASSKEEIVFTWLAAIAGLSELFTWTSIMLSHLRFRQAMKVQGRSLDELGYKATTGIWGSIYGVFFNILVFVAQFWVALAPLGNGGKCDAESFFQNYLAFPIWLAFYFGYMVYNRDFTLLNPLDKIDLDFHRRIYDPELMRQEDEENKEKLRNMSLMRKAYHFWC

Agp1p = molecular target: T3, Agp1p (Saccharomyces cerevisiae, UniProt P25376)
T3 construct: gene AGP1; native chromosomal permease in intact yeast cells, full length, plasma membrane; assigned by gene disruption
T3 sequence (P25376 1-633): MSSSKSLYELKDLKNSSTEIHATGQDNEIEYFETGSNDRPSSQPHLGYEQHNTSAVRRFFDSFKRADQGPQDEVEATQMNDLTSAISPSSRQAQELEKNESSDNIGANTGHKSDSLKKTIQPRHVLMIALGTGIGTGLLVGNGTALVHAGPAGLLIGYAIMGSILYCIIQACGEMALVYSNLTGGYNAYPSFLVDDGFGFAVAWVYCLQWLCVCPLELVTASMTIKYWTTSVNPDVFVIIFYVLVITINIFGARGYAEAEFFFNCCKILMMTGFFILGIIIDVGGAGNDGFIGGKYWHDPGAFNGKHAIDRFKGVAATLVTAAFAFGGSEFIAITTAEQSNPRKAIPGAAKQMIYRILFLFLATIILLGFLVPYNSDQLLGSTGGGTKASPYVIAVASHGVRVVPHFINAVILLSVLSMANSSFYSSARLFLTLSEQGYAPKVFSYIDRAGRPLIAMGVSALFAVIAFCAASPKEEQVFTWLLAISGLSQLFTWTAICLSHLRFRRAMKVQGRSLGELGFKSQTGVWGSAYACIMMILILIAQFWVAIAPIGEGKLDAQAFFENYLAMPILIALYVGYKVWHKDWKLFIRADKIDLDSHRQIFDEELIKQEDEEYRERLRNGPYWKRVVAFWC

[1] = read-out: Percentage inhibition / Y294Δbap2
[2] = read-out: Percentage inhibition / Y294Δbap2Δgap1 / MP

SMILES: CC(CC(N)C(=O)O)C(F)(F)F (racemic) [DL-trifluoroleucine]
- inhibition at 200 µM (Gap1p; [1]): 42%
- inhibition at 200 µM (Bap2p): 48%

SMILES: CC[C@H](C)[C@H](N)C(=O)O [Isoleucine]
- inhibition at 200 µM (Gap1p; read-out: Percentage inhibition / Y294): 71%

SMILES: N[C@@H](Cc1ccc(O)cc1)C(=O)O [Tyrosine]
- inhibition at 200 µM (Gap1p; [1]): 81%

SMILES: CC(C)C[C@H](N)C(=O)O [Leucine]
- inhibition at 200 µM (Agp1p; [2]): 34%
- inhibition at 200 µM (Gap1p; [1]): 75%
- inhibition at 200 µM (Bap2p): 72%

SMILES: N[C@@H](Cc1c[nH]c2ccccc12)C(=O)O [Tryptophan]
- inhibition at 200 µM (Agp1p; read-out: Percentage inhibition / Y294Δgap1 / MA): 18%
- inhibition at 200 µM (Gap1p; [1]): 86%

SMILES: NC(Cc1cccs1)C(=O)O (racemic) [β-2-thienylalanine]
- inhibition at 200 µM (Bap2p): 67%

SMILES: NC(=O)NCCC[C@H](N)C(=O)O [Citrulline]
- inhibition at 200 µM (Gap1p; [1]): 40%

SMILES: CC(C)[C@H](N)C(=O)O [Valine]
- inhibition at 200 µM (Gap1p; [1]): 71%

SMILES: NC(=O)C[C@H](N)C(=O)O [Asparagine]
- inhibition at 200 µM (Agp1p; [2]): 48%
- inhibition at 200 µM (Gap1p; [1]): 37%
